Consider seven molecules from patent publication US20240166641A1, “HETEROCYCLES AND USES THEREOF” (Kumquat Biosciences Inc., priority 2021, published 2024).

Assay [1] concerns the target T1, PTP1B (Homo sapiens, UniProt P18031).
T1 sequence (P18031 1-435): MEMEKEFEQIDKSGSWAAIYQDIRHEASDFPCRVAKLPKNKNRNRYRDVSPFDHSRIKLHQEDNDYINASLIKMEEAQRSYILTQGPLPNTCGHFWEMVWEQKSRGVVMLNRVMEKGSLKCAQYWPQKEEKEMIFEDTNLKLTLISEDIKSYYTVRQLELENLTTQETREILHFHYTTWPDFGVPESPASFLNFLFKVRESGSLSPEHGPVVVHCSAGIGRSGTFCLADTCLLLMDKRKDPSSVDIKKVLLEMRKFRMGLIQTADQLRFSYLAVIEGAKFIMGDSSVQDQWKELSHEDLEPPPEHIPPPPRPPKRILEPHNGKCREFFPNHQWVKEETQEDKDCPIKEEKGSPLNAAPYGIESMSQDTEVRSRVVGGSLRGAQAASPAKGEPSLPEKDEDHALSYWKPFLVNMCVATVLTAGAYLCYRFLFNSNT
Nature of the assay: Phosphatase activity assay (Bio-Biochem-DiFMUP), PTP1B. Format: biochemical. Particulars: DiFMUP substrate, room temperature. In a few lines:
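Buffer was 50 mM Bis-Tris pH 6.3, 2 mM EDTA, 5 mM DMH, with 10 μM FDP or DiFMUP substrate, enzyme added last, at room temperature. Fluorescent product was read continuously for 15–30 min (DiFMU ex 360/em 450 nm; FMP ex 440/em 530 nm). Initial rates against 10-point inhibitor series were fitted with a 4-parameter equation to give IC50.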

Assay [2] has as its system B16F10 mouse melanoma cells. The experiment in a line: MHC expression associated with IFNγ signaling, flow cytometry. Format: cell-based. Particulars: B16-F10, 3 uM compound, 48 hours, normalized to DMSO/with IFNγ control, read-out: % MHC in cells treated with Compound at 3 uM relative to negative control (DMSO). As for the experimental part: B16F10 mouse melanoma cells (ATCC Cat #CRL-6475, Manassas, VA) are seeded at approximately a density of 500 cells per well in a 384-well clear bottom plate (Corning Cat #3765, Corning, 5 NY) in 25 μL total volume of DMEM+10% FBS (Sigma Cat #D6429 and Sigma Cat #F4135, St. Louis, MO). Cells are allowed to adhere overnight at 37° C.+5% CO2. On the following day, 12.5 μL of mouse IFNγ (RD systems Cat #485-MI/CF, Minneapolis, MN) is added to half of the plate (columns 13-24) at a concentration of 2 ng/mL for a final assay concentration of 0.5 ng/mL of IFNγ. Media only (12.5 μL of DMEM+10% FBS) is added to the remainder of the 10 plate (columns 1-12). Next, compounds resuspended in DMSO (Sigma Cat #D2650) at 100 mM are diluted in semi-log dilutions in DMSO ranging from 100 mM to 0.001 mM and DMSO only controls are included. The compound/DMSO dilutions are further diluted 1:250 in DMEM+10% FBS, and 12.5 μL of these dilutions are added in triplicates to cells of both treatment arms (with and without IFNγ). Compounds are only dosed in the inner 240 wells, avoiding the outer 2-well perimeter of the plate to minimize edge effects. Finally, the plate is loaded into an IncuCyte® S3 Live Cell Analysis System (Essen Bioscience-Sartorius, Ann Arbor, MI) maintained in a 37° C.+5% CO2 incubator, allowed to equilibrate for 2 hours, and treated for 48 hours. MHC levels are measured by flow cytometry using a FITC anti-mouse H-2kb antibody (clone AF6-88.5), and levels are normalized based on DMSO/with IFNγ control. Table 7 below summarizes the percentage in MHC expression in cells treated with or without compounds disclosed herein at a specified concentration.

Assay [3] has as its system mouse C57BL/6 T cells. Nature of the assay: pSTAT1 signaling in IFNα-stimulated T cells, flow cytometry. Particulars: T-cell, 10 uM compound, T cells stimulated for 5 hours by IFNα, read-out: % pSTAT1 in cells treated with subject compounds relative to negative control (DMSO). In kind it is cell-based. As for the experimental part:
IFNα signaling in mouse C57BL/6 T cells promotes activation of multiple signaling pathways associated with antitumor responses. A key target of this signaling is phosphorylation of the transcription factor STAT1. […] T cells are stimulated for 5 hours by IFNα in the presence or absence of exemplified compounds disclosed herein (e.g., PTPN2 inhibitors) and stained intracellularly with antibodies for phosphorylated STAT1 and then analyzed by flow cytometry. Enhancement of phosphorylation of STAT1 is read out as a percentage over the DMSO control.
In general terms: A flow cytometer gives signals particle by particle.

Structures are written as SMILES.

What is called IC50 is the point on the concentration scale where inhibition reaches its midpoint. Take `CC(C)CCNc1ccc2cc(O)c(N3CC(=O)NS3(=O)=O)c(F)c2n1` [Compound 117]: the IC50 in assay [1] is at most 1 µM. Moreover, the activation at 3 µM in assay [2] is over 10%. For the same molecule, in assay [3], the activity at 10 µM came to 210%.

Take `CC(C)CCOc1ccc2cc(O)c(N3CC(=O)NS3(=O)=O)c(F)c2n1` [Compound 135, 5-(8-fluoro-6-hydroxy-2-(isopentyloxy)quinolin-7-yl)-1,2,5-thiadiazolidin-3-one 1,1-dioxide]: in assay [1], the IC50 was at most 1 µM. Also, in assay [2], the activation at 3 µM is over 10%. Further, the activity at 10 µM in assay [3] came to 255%.

Take `O=C1CN(c2c(O)cc3ccc(OCC4CCS(=O)(=O)CC4)nc3c2F)S(=O)(=O)N1` [Compound 143]: in assay [1], the concentration for half-maximal inhibition (IC50) was at most 1 µM. Further, the activation at 3 µM in assay [2] was over 10%. In assay [3], the activity at 10 µM is 161%.

For `CNc1ccc2cc(O)c(N3CC(=O)NS3(=O)=O)c(F)c2n1` [Compound 153], the half-maximal inhibitory concentration (IC50) in assay [1] is at most 1 µM. The activation at 3 µM in assay [2] is over 10%. For the same molecule, the activity at 10 µM in assay [3] amounted to 249%.

On to `COc1ccc2cc(O)c(N3CC(=O)NS3(=O)=O)c(F)c2n1` [Compound 154], for which the IC50 in assay [1] was at most 1 µM. For the same molecule, in assay [2], the activation at 3 µM was over 10%. For the same molecule, the activity at 10 µM in assay [3] was 303%.

`CN1CCCC(COc2ccc3cc(O)c(N4CC(=O)NS4(=O)=O)c(F)c3n2)C1` (stereo not drawn) [Compound 176]: the concentration for half-maximal inhibition (IC50) in assay [1] is at most 1 µM. In assay [2], the activation at 3 µM is over 10%. Besides, in assay [3], the activity at 10 µM was found to be 229%.

Consider `CN(C)CCOc1ccc2cc(O)c(N3CC(=O)NS3(=O)=O)c(F)c2n1` [Compound 178], for which the IC50 in assay [1] is at most 1 µM. Further, the activation at 3 µM in assay [2] is over 10%. In assay [3], the activity at 10 µM stood at 172%.
